From patent US20050222250A1, “Curcumin for the prevention and/or treatment of tissue damage” (priority 2002, published 2005)

Key:
[1] = tested on: radiation-induced oral mucositis (mucosal ulceration) in the tongue of rats; experiment: Radiation-induced oral mucositis in rat tongue, single dose studies (Example 2); assay type: in vivo, Sprague-Dawley rats; details: single dose irradiation of rat tongue; 0.5 ml per day oral gavage; placebo water
Text: The animals were maintained, and all experimental procedures performed in compliance with the Animal (Scientific Procedures) Act 1986. While under anaesthesia the animal's tongue was slightly extended outside and a region of the underside of the tongue was irradiated in situ with single doses of 2.27 MeV β-rays from a 5 mm or 11 mm diameter ^90Sr/^90Y plaque. The dose-rate of the 5 mm ^90Sr/^90Y plaque was ˜10 Gy/min and that of 11 mm source was ˜3 Gy/min at the surface of the mucus membrane 5 mm source was used for single dose study and 11 mm source was used for fractionated studies. The irradiation was carried out by simply positioning the sealed ^90Sr/^90Y plaque in contact with the surface of the tongue. The tongue was stretched gently and radioactive source was placed with a uniform pressure in all cases in order to avoid any local hypoxia. […]
A total of 144 rats were used for this part of study. […] From the day after irradiation, until any acute radiation-induced oral mucosal lesion had healed, the animals' tongues were assessed daily for the presence of radiation-induced mucositis (mucosal ulceration) under light anaesthesia, maintained with a 1.5% Halothane, oxygen mixture. […] The dose modification factor (DMF), defined as the ratio of the dose of radiation to cause mucositis in ‘active’ agent group to that in ‘placebo’ group, was calculated. […]

[2] = tested on: animals (rats, cats, dogs, pigs and monkeys); details: fed to animals over a period of 60 weeks; cited from earlier work

SMILES	Dose modification factor (DMF), active agent group vs placebo group [1]	Doses that have shown no toxicity [2]
Cc1c(C)c2c(c(C)c1O)CC[C@@](C)(CCC[C@H](C)CCC[C@H](C)CCCC(C)C)O2 [α-tocopherol, 5,7,8-trimethyltocol]	1.05	–
COc1cc(/C=C/C(=O)CC(=O)/C=C/c2ccc(O)c(OC)c2)ccc1O [Curcumin, diferuloylmethane]	–	500-5000 mg/kg body weight
